Test system: SMN2 mRNA
Assay: RT-qPCR of SMN2FL and SMN2 Δ7 mRNA in GM03813 cells
Assay type: cell-based, human
Conditions: GM03813, 72 h, alone or in combination at 10 nM, RT-qPCR (Example 10, FIG. 12A)
Text: “GM03813 cells” refers to fibroblast cells provided by Coriell Institute for Medical Research. This cell line is described as SPINAL MUSCULAR ATROPHY, TYPE II; SMA2 SURVIVAL OF MOTOR NEURON 1, TELOMERIC; SMN1. The relevant gene is SMN1; the chromosomal location is 5q12.2-q13.3, the allelic variant is described as 1 exons 7 and 8 deleted, SPINAL MUSCULAR ATROPHY, TYPE I; and the identified mutation: is EX7-8DEL.
Seventy-two hours later, total cellular RNA was isolated from the treated cells and reverse transcribed into cDNA. SMN2 mRNA expression was assessed with RT-qPCR using primer pairs specific for SMN2FL or SMN2 Δ7. SMN2 mRNA expression was also assessed by semi-quantitative RT-PCR using a primer pair that amplifies both SMN2FL and SMN2 Δ7 followed by DdeI digestion (PCR/digestion). […] After digestion, both bands were reduced by 115 bp, resulting in two products: 392 bp (SMN2FL) and 338 bp (SMN2 Δ7) as shown on the gel of FIG. 3D. FIG. 3A-3D show dose-dependent changes in SMN2FL and SMNΔ7 mRNA as assessed by RT-qPCR and PCR/digestion respectively. FIG. 3E-3G are graphic plots of data from quantitating the intensity of bands in FIG. 3D.
SMA patient derived fibroblasts were obtained from Coriell Institute (Camden, N.J., USA), including GM00232 (SMA type I with 2 copies of SMN2 gene) and GM03813 (SMA type II with 3 copies of SMN2 gene). These cells were cultured at 5% C02 and 37° C. in modified MEM medium (Gibco, Thermo Fisher Scientific, Carlsbad, Calif.) supplemented with 15% bovine calf serum (Sigma-Aldrich), 1% NEAA (Gibco) and 1% penicillin/streptomycin (Gibco). To transfect oligonucleotides including saRNAs, siRNA and ASO, cells were seeded into 6-well plates at a density of 1×10^5 cells/well and were transfected with oligonucleotides at different concentrations using RNAiMax (Invitrogen, Carlsbad, Calif.) according to the reverse transfection protocol provided by the manufacturer for 72 hours (unless otherwise specified). For Risdiplam treatment of cells, Risdiplam (HY-109101, MedChem Express Company, Monmouth Junction, N.J., USA) dissolved in DMSO was added directly to cells at desired concentration for 72 hours unless specified otherwise.
For RNA isolation from cultured cells, total cellular RNA was isolated from treated cells using an RNeasy Plus Mini kit (Qiagen, Hilden, Germany) according to its manual. To isolated RNA from animal tissues, tissues were harvested and stored at RNA later (AM7021, Thermo Fisher). Total RNA was then isolated using MagPure Total RNA Micro LQ kit (Magen, R6621, China) by auto-pure96 machine (ALLSHENG, China). The resultant RNA (1 μg) was reverse transcribed into cDNA by using a PrimeScript RT kit containing gDNA Eraser (Takara, Shlga, Japan). The resultant cDNA was amplified in an ABI 7500 Fast Real-time PCR System (Applied Biosystems; Foster City, Calif.) using SYBR Premix Ex Taq 11 (Takara, Shlga, Japan) reagents and primers which specifically amplified full-length (SMN2FL) or A7 SMN2 mRNA (SMN2 Δ7) (FIG. 1). The reaction conditions were: 95° C. for 3 seconds (1 cycle) and 60° C. for 30 seconds (40 cycles). Amplification of TBP gene served as an internal control.

Substance	SMN2FL mRNA fold change [fold]	SMN2 Δ7 mRNA fold change [fold]
DS06-0031: saRNA targeting SMN2 promoter at -1266; SEQ ID NO: 478/479 (chain 1 UUGUACACUUGGUCAACAUTT; chain 2 AUGUUGACCAAGUGUACAATT; chemistry not given here)	0.9	1.9
DS06-0067: saRNA targeting SMN2 promoter at -293; SEQ ID NO: 480/481 (chain 1 CACUGGAGUUCGAGACGAGTT; chain 2 CUCGUCUCGAACUCCAGUGTT; chemistry not given here)	1.3	2.4

Reference: US20230287416A1, “COMBINATORY TREATMENT OF SMA WITH SARNA AND MRNA MODULATORS” (RACTIGEN THERAPEUTICS, priority 2020, published 2023)
